Test results: PubChem BioAssay (NCI)
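All cell lines were grown in 96-well plates and treated with compound for 48 hours. Here, GI50 denotes the concentration required for 50% inhibition of growth. TGI is the concentration that stops growth completely.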

Experiments:
Experiment in all cases: inhibition of tumour cell growth, NCI panel, 48 h
786-0 renal = test system: 786-0 renal
A498 renal = test system: A498 renal
A549 NSCLC = test system: A549 NSCLC
ACHN renal = test system: ACHN renal
BT-549 breast = test system: BT-549 breast
CAKI-1 renal = test system: CAKI-1 renal
CCRF-CEM leukemia = test system: CCRF-CEM leukemia
COLO 205 colon = test system: COLO 205 colon
DU-145 prostate = test system: DU-145 prostate
HCC-2998 colon = test system: HCC-2998 colon
HCT-116 colon = test system: HCT-116 colon
HCT-15 colon = test system: HCT-15 colon
HL-60(TB) leukemia = test system: HL-60(TB) leukemia
HOP-62 NSCLC = test system: HOP-62 NSCLC
HOP-92 NSCLC = test system: HOP-92 NSCLC
HS 578T breast = test system: HS 578T breast
HT29 colon = test system: HT29 colon
IGROV1 ovarian = test system: IGROV1 ovarian
K-562 leukemia = test system: K-562 leukemia
KM12 colon = test system: KM12 colon
LOX IMVI melanoma = test system: LOX IMVI melanoma
M14 melanoma = test system: M14 melanoma
MALME-3M melanoma = test system: MALME-3M melanoma
MCF7 breast = test system: MCF7 breast
MDA-MB-231 breast = test system: MDA-MB-231 breast
MDA-MB-435 = test system: MDA-MB-435
MOLT-4 leukemia = test system: MOLT-4 leukemia
NCI-H226 lung = test system: NCI-H226 lung
NCI-H23 lung = test system: NCI-H23 lung
NCI-H460 lung = test system: NCI-H460 lung
NCI-H522 lung = test system: NCI-H522 lung
NCI/ADR-RES ovarian = test system: NCI/ADR-RES ovarian
OVCAR-3 ovarian = test system: OVCAR-3 ovarian
OVCAR-4 ovarian = test system: OVCAR-4 ovarian
OVCAR-5 ovarian = test system: OVCAR-5 ovarian
OVCAR-8 ovarian = test system: OVCAR-8 ovarian
PC-3 prostate = test system: PC-3 prostate
RPMI-8226 leukemia = test system: RPMI-8226 leukemia
RXF 393 renal = test system: RXF 393 renal
SF-268 CNS = test system: SF-268 CNS
SF-295 CNS = test system: SF-295 CNS
SF-539 CNS = test system: SF-539 CNS
SK-MEL-2 melanoma = test system: SK-MEL-2 melanoma
SK-MEL-28 melanoma = test system: SK-MEL-28 melanoma
SK-MEL-5 melanoma = test system: SK-MEL-5 melanoma
SK-OV-3 ovarian = test system: SK-OV-3 ovarian
SN12C renal = test system: SN12C renal
SNB-19 CNS = test system: SNB-19 CNS
SNB-75 CNS = test system: SNB-75 CNS
SR leukemia = test system: SR leukemia
SW-620 colon = test system: SW-620 colon
T-47D breast = test system: T-47D breast
TK-10 renal = test system: TK-10 renal
U251 CNS = test system: U251 CNS
UACC-257 melanoma = test system: UACC-257 melanoma
UACC-62 melanoma = test system: UACC-62 melanoma
UO-31 renal = test system: UO-31 renal

Structure (SMILES): C=CC(=O)N1CC2(CCC(n3nc(-c4ccc(Oc5ccccc5)cc4)c4c(N)ncnc43)CC2)C1
- GI50 (786-0 renal): 30.4 nM
- TGI (786-0 renal): 1630 nM
- GI50 (A498 renal): < 22.3 nM
- GI50 (A549 NSCLC): 1460 nM
- TGI (A549 NSCLC): 9410 nM
- GI50 (ACHN renal): < 12.3 nM
- TGI (ACHN renal): 362 nM
- GI50 (BT-549 breast): 245 nM
- TGI (BT-549 breast): 9780 nM
- GI50 (CAKI-1 renal): 28.3 nM
- TGI (CAKI-1 renal): 709 nM
- GI50 (CCRF-CEM leukemia): 3650 nM
- TGI (CCRF-CEM leukemia): 21900 nM
- GI50 (COLO 205 colon): 143 nM
- TGI (COLO 205 colon): 1280 nM
- GI50 (DU-145 prostate): 368 nM
- TGI (DU-145 prostate): 2210 nM
- GI50 (HCC-2998 colon): 4800 nM
- TGI (HCC-2998 colon): 19600 nM
- GI50 (HCT-116 colon): 40.7 nM
- TGI (HCT-116 colon): 1880 nM
- GI50 (HCT-15 colon): 200 nM
- TGI (HCT-15 colon): 12100 nM
- GI50 (HL-60(TB) leukemia): 3200 nM
- TGI (HL-60(TB) leukemia): 10000 nM
- GI50 (HOP-62 NSCLC): 10.3 nM
- TGI (HOP-62 NSCLC): 6500 nM
- GI50 (HOP-92 NSCLC): < 14 nM
- TGI (HOP-92 NSCLC): 366 nM
- GI50 (HS 578T breast): 108 nM
- TGI (HS 578T breast): 1540 nM
- GI50 (HT29 colon): < 17.5 nM
- TGI (HT29 colon): 1340 nM
- GI50 (IGROV1 ovarian): < 12.5 nM
- TGI (IGROV1 ovarian): 462 nM
- GI50 (K-562 leukemia): 698 nM
- TGI (K-562 leukemia): 25600 nM
- GI50 (KM12 colon): 3020 nM
- TGI (KM12 colon): 10800 nM
- GI50 (LOX IMVI melanoma): < 10.6 nM
- TGI (LOX IMVI melanoma): 847 nM
- GI50 (M14 melanoma): 1430 nM
- TGI (M14 melanoma): 5230 nM
- GI50 (MALME-3M melanoma): 1500 nM
- TGI (MALME-3M melanoma): 9210 nM
- GI50 (MCF7 breast): 424 nM
- TGI (MCF7 breast): 11400 nM
- GI50 (MDA-MB-231 breast): 281 nM
- TGI (MDA-MB-231 breast): 11100 nM
- GI50 (MDA-MB-435): 1740 nM
- TGI (MDA-MB-435): 7130 nM
- GI50 (MOLT-4 leukemia): 1930 nM
- TGI (MOLT-4 leukemia): 6390 nM
- GI50 (NCI-H226 lung): 861 nM
- TGI (NCI-H226 lung): 15000 nM
- GI50 (NCI-H23 lung): 4390 nM
- TGI (NCI-H23 lung): 17300 nM
- GI50 (NCI-H460 lung): 3430 nM
- TGI (NCI-H460 lung): 16100 nM
- GI50 (NCI-H522 lung): 67.6 nM
- TGI (NCI-H522 lung): 995 nM
- GI50 (NCI/ADR-RES ovarian): 1740 nM
- TGI (NCI/ADR-RES ovarian): 17500 nM
- GI50 (OVCAR-3 ovarian): 641 nM
- TGI (OVCAR-3 ovarian): 9610 nM
- GI50 (OVCAR-4 ovarian): 1460 nM
- TGI (OVCAR-4 ovarian): 14200 nM
- GI50 (OVCAR-5 ovarian): 130 nM
- TGI (OVCAR-5 ovarian): 16600 nM
- GI50 (OVCAR-8 ovarian): 1850 nM
- TGI (OVCAR-8 ovarian): 13100 nM
- GI50 (PC-3 prostate): 1090 nM
- TGI (PC-3 prostate): 9200 nM
- GI50 (RPMI-8226 leukemia): 1510 nM
- TGI (RPMI-8226 leukemia): 5800 nM
- GI50 (RXF 393 renal): 16.8 nM
- TGI (RXF 393 renal): 267 nM
- GI50 (SF-268 CNS): 255 nM
- TGI (SF-268 CNS): 6040 nM
- GI50 (SF-295 CNS): 2300 nM
- TGI (SF-295 CNS): 15700 nM
- GI50 (SF-539 CNS): 174 nM
- TGI (SF-539 CNS): 1910 nM
- GI50 (SK-MEL-2 melanoma): 1500 nM
- TGI (SK-MEL-2 melanoma): 3630 nM
- GI50 (SK-MEL-28 melanoma): 2450 nM
- TGI (SK-MEL-28 melanoma): 14000 nM
- GI50 (SK-MEL-5 melanoma): 1550 nM
- TGI (SK-MEL-5 melanoma): 2970 nM
- GI50 (SK-OV-3 ovarian): 52.5 nM
- TGI (SK-OV-3 ovarian): 787 nM
- GI50 (SN12C renal): 179 nM
- TGI (SN12C renal): 10600 nM
- GI50 (SNB-19 CNS): 1230 nM
- TGI (SNB-19 CNS): 15700 nM
- GI50 (SNB-75 CNS): < 15.1 nM
- TGI (SNB-75 CNS): 174 nM
- GI50 (SR leukemia): 3350 nM
- TGI (SR leukemia): 18900 nM
- GI50 (SW-620 colon): 3980 nM
- TGI (SW-620 colon): 21700 nM
- GI50 (T-47D breast): 19.7 nM
- TGI (T-47D breast): 5890 nM
- GI50 (TK-10 renal): 36.2 nM
- TGI (TK-10 renal): 266 nM
- GI50 (U251 CNS): 617 nM
- TGI (U251 CNS): 12700 nM
- GI50 (UACC-257 melanoma): 1460 nM
- TGI (UACC-257 melanoma): 8620 nM
- GI50 (UACC-62 melanoma): 1020 nM
- TGI (UACC-62 melanoma): 4850 nM
- GI50 (UO-31 renal): 46.8 nM
- TGI (UO-31 renal): 1660 nM
